Measured values reported in PubChem BioAssay (NCI).
Values joined by “and” are separate entries in the source; they are usually repeats but may differ in a detail not shown here. Equal entries are not always repeated.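 96-well plates; 48 h exposure; 5 concentrations. Endpoints by linear interpolation between flanking doses. Not reached: highest tested concentration assigned. Here, GI50 denotes the concentration required for 50% inhibition of growth. TGI: total growth inhibition.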

Tests used:
Assay in all cases: DTP human tumour cell line panel, 48 h
[1] = tested on: HS 578T breast
[2] = tested on: DLD-1 colon
[3] = tested on: KM20L2 colon
[4] = tested on: LXFL 529 NSCLC
[5] = tested on: SNB-78 CNS
[6] = tested on: XF 498 CNS
[7] = tested on: DMS 114 small cell lung
[8] = tested on: RXF-631 renal
[9] = tested on: MDA-N

C/C(=N/O)c1cccc(Nc2cc(-n3nnc4ccccc43)nc3ccccc23)c1
GI50 [1]: 14.3 µM | TGI [1]: 45.5 µM

O=C(/C=C/c1ccccc1)Oc1cccc2cccnc12
TGI [2]: 31.4 µM | TGI [3]: > 39.3 µM | TGI [4]: 52.2 µM | TGI [5]: > 100 µM | TGI [6]: 72.5 µM

CC(C)=CCN1c2ccccc2NC(=O)CC1C (centres undefined)
TGI [1]: > 100 µM

C/C=C/C(C#N)O[Si](C)(C)C (centres undefined)
TGI [2]: > 100 µM | TGI [7]: > 100 µM | TGI [3]: > 100 µM | TGI [4]: > 100 µM | TGI [5]: > 100 µM | TGI [6]: > 100 µM

Cc1nc(C(N)=O)c(N)n1CCN1CCN(C(=O)CCCCCCCCCCNC2N=CNc3nc[nH]c32)CC1 (centres undefined)
TGI [7]: > 100 µM | TGI [3]: > 100 µM | TGI [4]: 71.6 µM | TGI [8]: > 100 µM | TGI [5]: > 100 µM

C[C@@H](NC(C#N)c1ccco1)c1ccccc1 (some centres undefined)
TGI [1]: > 100 µM | TGI [9]: > 100 µM

O=C1OCC2=C1C(c1cccc(F)c1)c1cc3c(cc1N2CCO)OCO3 (centres undefined)
GI50 [1]: 1.42 µM | TGI [1]: > 50 µM

CCSC1=NC2C(N(CC)C(=O)N2CC)N1/N=C/C=C/c1ccccc1[N+](=O)[O-] (centres undefined)
GI50 [1]: 0.118 µM | TGI [1]: > 100 µM

COC1=NCc2ccccc2-c2ccccc21
TGI [2]: > 100 µM | TGI [7]: > 100 µM | TGI [5]: > 100 µM | TGI [6]: > 100 µM

Cc1ccc2cnc(N)c(C#Cc3cc(C(=O)Nc4ccc(CN5CCN(C)CC5)c(C(F)(F)F)c4)cnc3C)c2c1
GI50 [1]: 0.901 µM | TGI [1]: 2.76 µM

CC(=O)c1c(C(F)(F)F)n([O-])c2ccccc2[n+]1=O
GI50 [1]: 1.97 µM | TGI [1]: 6.5 µM

C1CSCCCSCCCSCCCSCCCSCCCSCCCSCCCSC1
TGI [1]: > 100 µM | TGI [9]: > 100 µM

N#C[Se]Cc1cc(-c2ccccc2)n(-c2ccc(S(N)(=O)=O)cc2)n1
GI50 [1]: 0.637 µM | TGI [1]: 5.21 µM

N#CC(N)=Nc1ccccc1
TGI [2]: > 100 µM | TGI [7]: 31.1 µM | TGI [3]: > 100 µM | TGI [4]: > 100 µM | TGI [8]: > 100 µM

O=S(=O)(/N=c1\scc(-c2ccccc2)n1-c1ccccc1)c1ccc(N2N=C3c4ccccc4CC3C2c2ccc(Cl)cc2)cc1 (centres undefined)
GI50 [1]: 33 µM | TGI [1]: > 100 µM

Cc1c(/C=N/NC(=O)c2ccccc2O)c(=O)n(-c2ccccc2)n1C
TGI [2]: > 100 µM | TGI [7]: > 100 µM | TGI [3]: > 100 µM | TGI [4]: > 100 µM | TGI [5]: > 100 µM | TGI [6]: > 100 µM

CO/N=C(\COc1ccc2c(c1)[nH]c1ccccc12)c1ccc(OC)cc1
GI50 [1]: 18.9 µM | TGI [1]: > 100 µM

COc1ccc2c(c1)C(=O)/C(=C/c1cccc(OCC(=O)c3ccccc3)c1)CC2
GI50 [1]: 43.7 µM | TGI [1]: > 100 µM

CN(C(=O)/C=C/c1ccccc1)C1C2CN3CCC(O2)C13 (centres undefined)
TGI [2]: > 100 µM | TGI [7]: > 100 µM | TGI [3]: > 100 µM | TGI [4]: > 100 µM | TGI [5]: > 100 µM | TGI [6]: > 100 µM

COC(=O)C1=CO[C@@H](OC2CC(CO)C(O)C(O)C2O)[C@@H]2[C@@H](C)[C@@H](OC(=O)/C=C/c3ccccc3)[C@@H](O)[C@H]12 (some centres undefined) (tested in a mixture with another compound)
TGI [2]: > 100 µM | TGI [7]: > 100 µM | TGI [3]: > 100 µM | TGI [4]: > 100 µM | TGI [6]: > 100 µM

O=C(Oc1cccnc1)c1cccnc1Nc1ccnc(C(F)(F)F)c1
GI50 [1]: 32.2 µM | TGI [1]: > 100 µM

Nc1ncnc2c1ncn2C1OC(CSCC(F)(F)F)C(O)C1O (centres undefined)
TGI [2]: > 100 µM | TGI [3]: > 100 µM | TGI [4]: > 100 µM | TGI [5]: > 100 µM | TGI [6]: > 100 µM

CN(C)CCNC(=O)Cn1ccc(=O)c2cc([N+](=O)[O-])ccc21
TGI [1]: > 100 µM | TGI [9]: > 100 µM

O=C(O)CCNS(=O)(=O)c1ccc(NC(=O)c2ccccc2)cc1
TGI [2]: > 100 µM | TGI [3]: > 100 µM | TGI [4]: > 100 µM | TGI [6]: > 100 µM

FC(F)(F)c1cccc(-c2nc3nc(Cl)c(Cl)nc3[nH]2)c1
TGI [1]: 17.8 µM | TGI [9]: 32 µM

c1ccc(-c2nc(-c3ccccn3)nc(-c3ccccn3)n2)nc1
GI50 [1]: 53.6 µM | TGI [1]: > 100 µM

Cn1ncc(-c2ccc3c(=O)[nH]nc(CN)c3c2)c1-c1c(F)c(Cl)cc(OC2CC2)c1C#N
GI50 [1]: 12.4 µM and 11 µM | TGI [1]: 33.8 µM and 29.9 µM

CC(CO)Nc1cc(-c2[nH]c3cccnc3c2-c2ccc(F)cc2)ccn1 (centres undefined)
GI50 [1]: 16.8 µM | TGI [1]: > 25 µM

CCOc1ccccc1CCN=C1NC(=O)/C(=C/c2ccc3ncccc3c2)S1
GI50 [1]: 2.76 µM | TGI [1]: > 7.14 µM

COc1cc(C)ccc1C(=O)c1ccc(C)cc1OC
GI50 [1]: 3.45 µM | TGI [1]: > 100 µM

N#CC(C#N)=C/C=C(\Cl)c1ccc(Cl)cc1
GI50 [1]: 7.47 µM | TGI [1]: 26.3 µM

CN(C)c1cc2ccccc2oc1=O
TGI [1]: > 100 µM | TGI [9]: > 100 µM
